This is an account of results in patent publication US11236085B2, “PD-1/PD-L1 inhibitors” (Gilead Sciences, Inc., priority 2018, dated 2022).

One experiment deals with T1, PD-L1 (Homo sapiens, UniProt Q9NZQ7).
T1 construct: determine if they can specifically dimerize the extracellular domains of PD-L1
Nature of the experiment: PD-L1/PD-L1 dimerization biochemical protein-protein interaction assay (ALPHA). Particulars: 0.5 nM His tagged PD-L1 and 0.5 nM FLAG tagged PD-L1; compound induced dimerization; read-out: AC50 PDL1 Dimer 1 nM. As to the method: PD-L1/PD-L1 Dimerization Biochemical Protein-Protein Interaction Assay
Compounds were tested in biochemical protein-protein interaction assays to determine if they can specifically dimerize the extracellular domains of PD-L1. Dimerization of the proteins (His-tagged PD-L1 and FLAG-tagged PD-L1) is measured using a bead based Amplified Luminescent Proximity Homogeneous Assay (ALPHA) platform. […] Assays are performed in 25 mM Hepes (pH 7.4), 150 mM NaCl, 3.4 mM EDTA, 0.005% Tween 20, and 0.01% BSA. Final protein concentration in the assays were 0.5 nM (His tagged PD-L1) and 0.5 nM (FLAG tagged PD-L1). After an assay reaction time of 2 hours at 25° C., 20 μg/mL (final assay concentration) ALPHA assay acceptor beads (anti-His coated) were added and incubated for 60 minutes at 25° C. Binding was measured following a final 60 minute incubation with 40 μg/mL (final assay concentration) ALPHA assay donor beads (anti-FLAG coated). AC50 values were calculated from the fit of the dose-response curves to a four-parameter equation (Table 4).

For experiment [1], the target named is T2, PD-1/PD-L1 (Homo sapiens, UniProt Q9NZQ7). Nature of the experiment: PD-1/PD-L1 NFAT reporter assay (co-culture of aAPC-PD-L1 CHO cells and Jurkat cells overexpressing PD-1, NFAT luciferase). The class given is cell-based. Also on record: expressed in transfected cells; host or cells: CHO cells (aAPC-PD-L1) co-cultured with Jurkat cells overexpressing PD-1. The note with it: co-culture incubated for 6 hrs at 37° C.; luciferase under NFAT control. As for the experimental part:
PD-1/PD-L1 NFAT Reporter Assay
Compounds were tested in a functional co-culture reporter assay in which TCR-mediated NFAT activity is inhibited by the engagement of PD-1 with PD-L1. […] CHO cells expressing surface-bound anti-CD3 antibodies and PD-L1 (artificial antigen presenting cells, aAPC-PD-L1) were first seeded overnight. Jurkat cells overexpressing PD-1 and expressing a luciferase construct under NFAT control are diluted in RPMI assay medium (RPMI 1640 with 2% FBS), mixed with compounds, and immediately seeded on the monolayer of aAPC-PD-L1. The co-culture is then incubated for 6 hrs at 37° C. Luciferase activity is assessed by adding the ONE-Glo reagent and measuring luminescence with a plate reader. EC50 values are calculated from the fit of the dose-response curves to a four-parameter equation (Table 4).
Target sequence in this assay (Q9NZQ7 19-290): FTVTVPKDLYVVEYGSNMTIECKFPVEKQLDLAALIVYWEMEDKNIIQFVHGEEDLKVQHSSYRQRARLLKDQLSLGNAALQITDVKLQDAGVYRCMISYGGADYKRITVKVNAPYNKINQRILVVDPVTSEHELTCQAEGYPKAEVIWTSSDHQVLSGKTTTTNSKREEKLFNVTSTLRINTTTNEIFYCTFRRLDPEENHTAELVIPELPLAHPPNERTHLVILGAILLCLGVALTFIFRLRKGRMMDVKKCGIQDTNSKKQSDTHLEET

Experiment [2] addresses T2, PD-1/PD-L1. Put plainly: PD-1/PD-L1 biochemical protein-protein interaction assay (ALPHA). The experiment is classed as binding. The note with it: 0.3 nM His tagged PD-L1, 2.5 nM biotinylated Fc-PD-1; 60 minutes at 25° C.; read-out: IC50 PD-L1-PD1. As to the method: PD-1/PD-L1 & CTLA/CD80 Biochemical Protein-Protein Interaction Assay
Compounds were tested in biochemical protein-protein interaction assays to determine if they can specifically block the interaction between the extracellular domains of PD-1/PD-L1 or CTLA/CD80. Binding of the protein pairs is measured using a bead based Amplified Luminescent Proximity Homogeneous Assay (ALPHA) platform. Binding of each protein pair results in proximity of the donor and acceptor beads which leads to an increase in ALPHA signal. Disruption of the protein-protein interaction with a test compound results in a decrease in ALPHA signal. Assays are performed in 25 mM Hepes (pH 7.4), 150 mM NaCl, 3.4 mM EDTA, 0.005% Tween 20, and 0.01% BSA. Final protein concentration in the assays were 0.3 nM (His tagged PD-L1), 2.5 nM (biotinylated Fc-PD-1), 1 nM (His tagged CTLA4) and 1 nM (biotinylated CD80). After an assay reaction time of 60 minutes at 25° C., binding was measured with addition of 20 μg/mL ALPHA assay acceptor beads (anti-His coated) and 20 µg/mL ALPHA assay donor beads (streptavidin coated). IC50 values were calculated from the fit of the dose-response curves to a four-parameter equation. Representative data are shown below in Table 3.
Target sequence in this assay (Q9NZQ7 19-238 limits assumed): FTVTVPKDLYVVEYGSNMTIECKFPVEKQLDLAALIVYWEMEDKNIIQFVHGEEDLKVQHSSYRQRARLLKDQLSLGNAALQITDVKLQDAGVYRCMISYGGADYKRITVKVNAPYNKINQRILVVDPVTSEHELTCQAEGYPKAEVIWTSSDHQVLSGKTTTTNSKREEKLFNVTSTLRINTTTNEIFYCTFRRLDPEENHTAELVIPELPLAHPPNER

A word on the AC50: it is the concentration at which the activity in the assay is half-maximal. As a reminder, the EC50 is the concentration at which the effect is half-maximal. One may read the IC50 as the concentration that inhibits the measured activity by half.

T1 sequence (Q9NZQ7 19-238 limits assumed): as above
T1 sequence (Q9NZQ7 19-238 limits assumed): as above

In the case of `C[C@](CO)(NCc1cc(Cl)c(OCc2cccc(-c3cccc(-c4ccc5c(c4)CNCC5)c3Cl)c2Cl)nc1OCc1cc(C#N)cc(C#N)c1)C(=O)O` [Compound 27], the AC50 at PD-L1 was found to be 30.6 nM. This compound also came in with an EC50 on PD-1/PD-L1 [1] of 155 nM. Besides, the IC50 on PD-1/PD-L1 [2] came to 0.312 nM.

With `C[C@@](CO)(NCc1cc(Cl)c(OCc2cccc(-c3cccc(-c4ccc5c(c4)CNCC5)c3Cl)c2Cl)nc1OCc1cc(C#N)cc(C#N)c1)C(=O)O` [Compound 28], the AC50 at PD-L1 stood at 39.7 nM. For the same compound, the midpoint of the response on PD-1/PD-L1 [1], the EC50, lay at 161 nM. Further, the IC50 on PD-1/PD-L1 [2] was 0.367 nM.

For the compound `C[C@](CO)(NCc1cc(Cl)c(OCc2cccc(-c3cccc(-c4ccc5c(c4)CNCC5)c3Cl)c2Cl)nc1OCc1cncc(C#N)c1)C(=O)O` [Compound 29], the AC50 at PD-L1 is 31.5 nM. Further, the EC50 on PD-1/PD-L1 [1] came to 200 nM. Besides, the IC50 on PD-1/PD-L1 [2] amounted to 0.368 nM.

`COc1nc(-c2cccc(-c3cccc(-c4nc5n(n4)CCNC5)c3Cl)c2Cl)ccc1CNC[C@@H]1CCC(=O)N1` [Compound 30]: at PD-L1, the AC50 was 690 nM. The same compound displayed an EC50 at PD-1/PD-L1 [1] of 148 nM. Moreover, the IC50 at PD-1/PD-L1 [2] is 0.247 nM.

For `COc1nc(-c2cccc(-c3cccc(-c4nc5c(s4)CNCC5)c3Cl)c2Cl)ccc1CNCCO` [Compound 31], on PD-L1, the AC50 turned out to be 314 nM. Besides, a half-maximal response at PD-1/PD-L1 [1] (EC50) required 674 nM. For the same compound, the IC50 on PD-1/PD-L1 [2] came to 0.431 nM.

Turning to `COc1nc(-c2cccc(-c3cccc(-c4cc5c(s4)CCNC5)c3Cl)c2Cl)ccc1CN1CC2(CCC(=O)N2)C1` [Compound 32], the AC50 at PD-L1 turned out to be 181 nM. A half-maximal response at PD-1/PD-L1 [1] (EC50) required 288 nM. Besides, the IC50 on PD-1/PD-L1 [2] was 1.14 nM.

On to `COc1nc(-c2cccc(-c3cccc(-c4cc5c(s4)CCNC5)c3Cl)c2Cl)ccc1CNC[C@@H]1CCC(=O)N1` [Compound 33], for which, on PD-L1, the AC50 was found to be 145 nM. Moreover, on PD-1/PD-L1 [1], the midpoint of the response, the EC50, lay at 170 nM. Besides, at PD-1/PD-L1 [2], the IC50 was 1.04 nM.

Regarding `COc1nc(-c2cccc(-c3cccc(-c4cc5c(s4)CNCC5)c3Cl)c2Cl)ccc1CNC[C@@H]1CCC(=O)N1` [Compound 34], at PD-L1, the AC50 amounted to 174 nM. The same compound registered an EC50 at PD-1/PD-L1 [1] of 163 nM. Besides, the IC50 on PD-1/PD-L1 [2] amounted to 1.13 nM.

In the case of `COc1nc(-c2cccc(-c3cccc(-c4nc5c(s4)CNCC5)c3Cl)c2Cl)ccc1CNC[C@@H]1CCC(=O)N1` [Compound 35], the AC50 at PD-L1 was determined as 281 nM. It took 105 nM to reach a half-maximal effect on PD-1/PD-L1 [1] (EC50). In addition, the IC50 at PD-1/PD-L1 [2] was 0.814 nM.

On to `COc1nc(-c2cccc(-c3cccc(-c4nc5c(s4)CCNC5)c3Cl)c2Cl)ccc1CNC[C@@H]1CCC(=O)N1` [Compound 36], for which the AC50 at PD-L1 was 256 nM. A half-maximal effect on PD-1/PD-L1 [1] (EC50) was put at 142 nM. Moreover, the IC50 on PD-1/PD-L1 [2] came to 0.588 nM.
